Values joined by “and” are separate entries in the source; they are usually repeats but may differ in a detail not shown here. Equal entries are not always repeated. Toxic doses and inconclusive results are not listed.
System: L1210 leukemia ip in BDF1 mice, survival T/C
Assay: NCI In Vivo Anticancer Drug Screen. Data for tumor model L1210 Leukemia (intraperitoneal) in B6D2F1 (BDF1) mice
Conditions: higher = longer survival
Summary of the method: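 Ratio derived from survival: compound-dosed mice over vehicle-dosed mice, all bearing a transplantable tumor.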

[1] = endpoint: mean survival time, dose: 100.0 mg/kg/injection, schedule: Q01DX009 (ip), vehicle: saline with Tween-80
[2] = endpoint: mean survival time, dose: 200.0 mg/kg/injection, schedule: Q01DX009 (ip), vehicle: saline with Tween-80
[3] = endpoint: mean survival time, dose: 400.0 mg/kg/injection, schedule: Q01DX009 (ip), vehicle: saline with Tween-80
[4] = endpoint: mean survival time, dose: 100.0 mg/kg/injection, schedule: Q01DX009 (ip), vehicle: water
[5] = endpoint: mean survival time, dose: 100.0 mg/kg/injection, schedule: Q04DX003 (ip), vehicle: water
[6] = endpoint: mean survival time, dose: 200.0 mg/kg/injection, schedule: Q01DX009 (ip), vehicle: water
[7] = endpoint: mean survival time, dose: 200.0 mg/kg/injection, schedule: Q04DX003 (ip), vehicle: water
[8] = endpoint: mean survival time, dose: 400.0 mg/kg/injection, schedule: Q01DX009 (ip), vehicle: water
[9] = endpoint: mean survival time, dose: 400.0 mg/kg/injection, schedule: Q04DX003 (ip), vehicle: water
[10] = endpoint: mean survival time, dose: 100.0 mg/kg/injection, schedule: Q04DX003 (ip), vehicle: Klucel (hydroxypropylcellulose) (HPC)
[11] = endpoint: mean survival time, dose: 200.0 mg/kg/injection, schedule: Q04DX003 (ip), vehicle: Klucel (hydroxypropylcellulose) (HPC)
[12] = endpoint: mean survival time, dose: 400.0 mg/kg/injection, schedule: Q04DX003 (ip), vehicle: Klucel (hydroxypropylcellulose) (HPC)

Cl/C(=N\Nc1ccccc1)c1ccccc1
T/C (endpoint: mean survival time, dose: 3.52 mg/kg/injection, schedule: Q01DX009 (ip), vehicle: saline sonified): 100 % of control | T/C (endpoint: mean survival time, dose: 5.28 mg/kg/injection, schedule: Q01DX009 (ip), vehicle: saline sonified): 105 % of control | T/C (endpoint: mean survival time, dose: 7.5 mg/kg/injection, schedule: Q01DX001 (ip), vehicle: Klucel (hydroxypropylcellulose) (HPC)): 98 % of control | T/C (endpoint: mean survival time, dose: 8.0 mg/kg/injection, schedule: Q01DX009 (ip), vehicle: saline sonified): 100 % of control | T/C (endpoint: mean survival time, dose: 12.0 mg/kg/injection, schedule: Q01DX009 (ip), vehicle: saline sonified): 108 % of control | T/C (endpoint: mean survival time, dose: 15.0 mg/kg/injection, schedule: Q01DX001 (ip), vehicle: Klucel (hydroxypropylcellulose) (HPC)): 105 % of control | T/C (endpoint: mean survival time, dose: 15.0 mg/kg/injection, schedule: Q01DX009 (ip), vehicle: saline sonified): 111 % of control | T/C (endpoint: mean survival time, dose: 30.0 mg/kg/injection, schedule: Q01DX001 (ip), vehicle: Klucel (hydroxypropylcellulose) (HPC)): 105 % of control | T/C (endpoint: mean survival time, dose: 30.0 mg/kg/injection, schedule: Q01DX009 (ip), vehicle: saline sonified): 118 % of control

Cc1ccc(S(=O)(=O)Oc2ccccc2NS(=O)(=O)c2ccccc2)cc1
T/C (endpoint: mean survival time, dose: 100.0 mg/kg/injection, schedule: Q01DX001 (ip), vehicle: saline): 101 % of control | T/C (endpoint: mean survival time, dose: 100.0 mg/kg/injection, schedule: Q04DX003 (ip), vehicle: acetone): 96 % of control | T/C (endpoint: mean survival time, dose: 200.0 mg/kg/injection, schedule: Q01DX001 (ip), vehicle: saline): 95 % of control | T/C (endpoint: mean survival time, dose: 200.0 mg/kg/injection, schedule: Q04DX003 (ip), vehicle: acetone): 92 % of control | T/C (endpoint: mean survival time, dose: 400.0 mg/kg/injection, schedule: Q01DX001 (ip), vehicle: saline): 95 % of control | T/C (endpoint: mean survival time, dose: 400.0 mg/kg/injection, schedule: Q04DX003 (ip), vehicle: acetone): 87 % of control

COc1cc(C(=O)NNC(=O)c2ccc(Cl)c(Cl)c2)cc(OC)c1OC
T/C (endpoint: mean survival time, dose: 100.0 mg/kg/injection, schedule: Q01DX001 (ip), vehicle: saline with Tween-80): 93 % of control | T/C [1]: 100 % of control and 89 % of control | T/C (endpoint: mean survival time, dose: 100.0 mg/kg/injection, schedule: Q04DX002 (ip), vehicle: saline with Tween-80): 93 % of control and 104 % of control | T/C (endpoint: mean survival time, dose: 200.0 mg/kg/injection, schedule: Q01DX001 (ip), vehicle: saline with Tween-80): 97 % of control | T/C [2]: 101 % of control and 86 % of control | T/C (endpoint: mean survival time, dose: 200.0 mg/kg/injection, schedule: Q04DX002 (ip), vehicle: saline with Tween-80): 101 % of control and 110 % of control | T/C (endpoint: mean survival time, dose: 400.0 mg/kg/injection, schedule: Q01DX001 (ip), vehicle: saline with Tween-80): 90 % of control | T/C [3]: 92 % of control and 97 % of control | T/C (endpoint: mean survival time, dose: 400.0 mg/kg/injection, schedule: Q04DX002 (ip), vehicle: saline with Tween-80): 102 % of control and 87 % of control

O=C(Nc1ccccc1F)C(Cl)(Cl)Cl
T/C (endpoint: mean survival time, dose: 100.0 mg/kg/injection, schedule: Q04DX002 (ip), vehicle: Klucel (hydroxypropylcellulose) (HPC)): 104 % of control | T/C (endpoint: mean survival time, dose: 200.0 mg/kg/injection, schedule: Q04DX002 (ip), vehicle: Klucel (hydroxypropylcellulose) (HPC)): 104 % of control

O=C(O)CCC(=O)NCCN(CCNC(=O)CCC(=O)O)C(=O)CCC(=O)O
T/C (endpoint: mean survival time, dose: 100.0 mg/kg/injection, schedule: Q01DX001 (ip), vehicle: other): 105 % of control | T/C [4]: 100 % of control | T/C [5]: 105 % of control | T/C (endpoint: mean survival time, dose: 200.0 mg/kg/injection, schedule: Q01DX001 (ip), vehicle: other): 100 % of control | T/C [6]: 97 % of control | T/C [7]: 98 % of control | T/C (endpoint: mean survival time, dose: 400.0 mg/kg/injection, schedule: Q01DX001 (ip), vehicle: other): 98 % of control | T/C [8]: 97 % of control | T/C [9]: 102 % of control

CCOC(=O)c1[nH]c(C)c(C(C)=O)c1C
T/C [1]: 92 % of control | T/C [2]: 97 % of control | T/C [3]: 100 % of control

CCO/C=C1\SC(=S)N(c2ccc(O)cc2)C1=O
T/C (endpoint: mean survival time, dose: 12.5 mg/kg/injection, schedule: Q01DX009 (ip), vehicle: Klucel (hydroxypropylcellulose) (HPC)): 103 % of control | T/C (endpoint: mean survival time, dose: 25.0 mg/kg/injection, schedule: Q01DX009 (ip), vehicle: Klucel (hydroxypropylcellulose) (HPC)): 101 % of control | T/C (endpoint: mean survival time, dose: 50.0 mg/kg/injection, schedule: Q01DX009 (ip), vehicle: Klucel (hydroxypropylcellulose) (HPC)): 105 % of control | T/C (endpoint: mean survival time, dose: 100.0 mg/kg/injection, schedule: Q01DX009 (ip), vehicle: Klucel (hydroxypropylcellulose) (HPC)): 103 % of control | T/C (endpoint: mean survival time, dose: 100.0 mg/kg/injection, schedule: Q01DX009 (ip), vehicle: other): 104 % of control | T/C [10]: 98 % of control | T/C (endpoint: mean survival time, dose: 100.0 mg/kg/injection, schedule: Q04DX003 (ip), vehicle: saline sonified): 96 % of control | T/C (endpoint: mean survival time, dose: 200.0 mg/kg/injection, schedule: Q01DX009 (ip), vehicle: other): 108 % of control | T/C [11]: 98 % of control | T/C (endpoint: mean survival time, dose: 200.0 mg/kg/injection, schedule: Q04DX003 (ip), vehicle: saline sonified): 97 % of control | T/C [12]: 89 % of control | T/C (endpoint: mean survival time, dose: 400.0 mg/kg/injection, schedule: Q04DX003 (ip), vehicle: saline sonified): 99 % of control

O=C(O)c1sc(C(=O)O)c(O)c1O
T/C (endpoint: mean survival time, dose: 12.5 mg/kg/injection, schedule: Q01DX001 (ip), vehicle: saline with Tween-80): 111 % of control | T/C (endpoint: mean survival time, dose: 25.0 mg/kg/injection, schedule: Q01DX001 (ip), vehicle: saline with Tween-80): 103 % of control | T/C (endpoint: mean survival time, dose: 50.0 mg/kg/injection, schedule: Q01DX001 (ip), vehicle: saline with Tween-80): 100 % of control

COc1cccc2c1C(=O)c1c(O)c3c(c(O)c1C2=O)CC(O)(C(C)=O)CC3OC1CC(NC(=O)C(F)(F)F)C(O)C(C)O1 (centres undefined)
T/C (endpoint: mean survival time, dose: 0.25 mg/kg/injection, schedule: Q04DX003 (ip), vehicle: water): 96 % of control | T/C (endpoint: mean survival time, dose: 0.5 mg/kg/injection, schedule: Q04DX003 (ip), vehicle: water): 95 % of control | T/C (endpoint: mean survival time, dose: 1.0 mg/kg/injection, schedule: Q04DX003 (ip), vehicle: water): 106 % of control | T/C (endpoint: mean survival time, dose: 2.0 mg/kg/injection, schedule: Q04DX003 (ip), vehicle: water): 111 % of control | T/C (endpoint: mean survival time, dose: 4.0 mg/kg/injection, schedule: Q04DX003 (ip), vehicle: water): 98 % of control | T/C (endpoint: mean survival time, dose: 8.0 mg/kg/injection, schedule: Q04DX003 (ip), vehicle: water): 90 % of control | T/C (endpoint: mean survival time, dose: 14.0 mg/kg/injection, schedule: Q04DX003 (ip), vehicle: water): 107 % of control | T/C (endpoint: mean survival time, dose: 16.0 mg/kg/injection, schedule: Q04DX003 (ip), vehicle: water): 101 % of control | T/C (endpoint: mean survival time, dose: 21.0 mg/kg/injection, schedule: Q04DX003 (ip), vehicle: water): 113 % of control | T/C (endpoint: mean survival time, dose: 25.0 mg/kg/injection, schedule: Q04DX003 (ip), vehicle: water): 110 % of control | T/C (endpoint: mean survival time, dose: 32.0 mg/kg/injection, schedule: Q04DX003 (ip), vehicle: water): 110 % of control | T/C (endpoint: mean survival time, dose: 50.0 mg/kg/injection, schedule: Q04DX003 (ip), vehicle: water): 107 % of control and 112 % of control | T/C [5]: 112 % of control

Cc1cc(=O)c2cc(N(C)C)ccc2[nH]1
T/C [4]: 100 % of control | T/C [5]: 115 % of control | T/C [6]: 105 % of control | T/C [7]: 116 % of control | T/C [8]: 104 % of control | T/C [9]: 116 % of control

CCOC(=O)C1(C(=O)OCC)CCC(OCC)N1C(=O)c1cc(OC)c(OC)cc1[N+](=O)[O-] (centres undefined)
T/C [10]: 105 % of control | T/C [11]: 100 % of control | T/C [12]: 99 % of control

O=C(ON=C(c1ccc(Cl)cc1)c1ccc(Cl)cc1)c1ccc(Cl)cc1
T/C (endpoint: median survival time, dose: 300.0 mg/kg/injection, schedule: Q01DX009 (ip), vehicle: Klucel (hydroxypropylcellulose) (HPC)): 157 % of control | T/C (endpoint: median survival time, dose: 500.0 mg/kg/injection, schedule: Q01DX009 (ip), vehicle: Klucel (hydroxypropylcellulose) (HPC)): 88 % of control | T/C (endpoint: median survival time, dose: 833.0 mg/kg/injection, schedule: Q01DX009 (ip), vehicle: Klucel (hydroxypropylcellulose) (HPC)): 74 % of control

Cc1nc(CN(C)C)c2cnccn12
T/C (endpoint: mean survival time, dose: 25.0 mg/kg/injection, schedule: Q01DX009 (ip), vehicle: saline): 109 % of control | T/C (endpoint: mean survival time, dose: 50.0 mg/kg/injection, schedule: Q01DX009 (ip), vehicle: saline): 113 % of control | T/C (endpoint: mean survival time, dose: 100.0 mg/kg/injection, schedule: Q04DX003 (ip), vehicle: saline): 98 % of control

CC(C)/C=C/C1(C(C)C)C(=O)NC(=S)NC1=O
T/C (endpoint: mean survival time, dose: 75.0 mg/kg/injection, schedule: Q01DX001 (ip), vehicle: saline): 95 % of control | T/C (endpoint: mean survival time, dose: 150.0 mg/kg/injection, schedule: Q01DX001 (ip), vehicle: saline): 100 % of control | T/C (endpoint: mean survival time, dose: 300.0 mg/kg/injection, schedule: Q01DX001 (ip), vehicle: saline): 98 % of control

Source: PubChem BioAssay AID248 (DTP/NCI, 2004)
